The species named for data set [1] is Homo sapiens. In words: Selectivity for human HCN1 over human HCN4.
In data set [2] the target is T1, Potassium/sodium hyperpolarization-activated cyclic nucleotide-gated channel 1 (Homo sapiens, UniProt O60741).
T1 sequence (O60741 whole entry): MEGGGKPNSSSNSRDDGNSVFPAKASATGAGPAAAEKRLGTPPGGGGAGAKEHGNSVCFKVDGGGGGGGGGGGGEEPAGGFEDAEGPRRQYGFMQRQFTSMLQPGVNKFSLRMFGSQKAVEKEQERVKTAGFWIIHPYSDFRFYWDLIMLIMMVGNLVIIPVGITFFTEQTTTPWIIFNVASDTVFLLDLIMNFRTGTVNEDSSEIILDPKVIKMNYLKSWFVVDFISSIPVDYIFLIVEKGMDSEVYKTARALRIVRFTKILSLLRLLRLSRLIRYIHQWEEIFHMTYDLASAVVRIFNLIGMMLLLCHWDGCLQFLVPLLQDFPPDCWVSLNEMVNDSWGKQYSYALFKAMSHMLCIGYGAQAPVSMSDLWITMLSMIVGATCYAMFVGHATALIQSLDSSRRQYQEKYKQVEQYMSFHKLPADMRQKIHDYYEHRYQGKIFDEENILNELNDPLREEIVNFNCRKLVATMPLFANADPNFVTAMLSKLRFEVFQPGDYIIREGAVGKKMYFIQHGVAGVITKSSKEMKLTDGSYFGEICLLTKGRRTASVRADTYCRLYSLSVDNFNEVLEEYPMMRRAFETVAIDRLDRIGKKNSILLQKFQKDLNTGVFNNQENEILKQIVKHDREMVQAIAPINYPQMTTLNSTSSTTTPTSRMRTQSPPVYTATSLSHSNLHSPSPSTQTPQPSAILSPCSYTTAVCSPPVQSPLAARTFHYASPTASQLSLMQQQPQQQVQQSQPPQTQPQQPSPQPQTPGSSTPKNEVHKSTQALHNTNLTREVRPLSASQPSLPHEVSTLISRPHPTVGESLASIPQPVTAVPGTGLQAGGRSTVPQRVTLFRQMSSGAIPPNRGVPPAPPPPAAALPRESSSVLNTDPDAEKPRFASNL
In words: Inhibition of human HCN1 heterologously expressed in HEK-293 cells after 30 mins by VIPR assay. It is filed as cell-based, HEK293.

The target in data set [3] is T2, Potassium/sodium hyperpolarization-activated cyclic nucleotide-gated channel 4 (Homo sapiens, UniProt Q9Y3Q4).
T2 sequence (Q9Y3Q4 whole entry): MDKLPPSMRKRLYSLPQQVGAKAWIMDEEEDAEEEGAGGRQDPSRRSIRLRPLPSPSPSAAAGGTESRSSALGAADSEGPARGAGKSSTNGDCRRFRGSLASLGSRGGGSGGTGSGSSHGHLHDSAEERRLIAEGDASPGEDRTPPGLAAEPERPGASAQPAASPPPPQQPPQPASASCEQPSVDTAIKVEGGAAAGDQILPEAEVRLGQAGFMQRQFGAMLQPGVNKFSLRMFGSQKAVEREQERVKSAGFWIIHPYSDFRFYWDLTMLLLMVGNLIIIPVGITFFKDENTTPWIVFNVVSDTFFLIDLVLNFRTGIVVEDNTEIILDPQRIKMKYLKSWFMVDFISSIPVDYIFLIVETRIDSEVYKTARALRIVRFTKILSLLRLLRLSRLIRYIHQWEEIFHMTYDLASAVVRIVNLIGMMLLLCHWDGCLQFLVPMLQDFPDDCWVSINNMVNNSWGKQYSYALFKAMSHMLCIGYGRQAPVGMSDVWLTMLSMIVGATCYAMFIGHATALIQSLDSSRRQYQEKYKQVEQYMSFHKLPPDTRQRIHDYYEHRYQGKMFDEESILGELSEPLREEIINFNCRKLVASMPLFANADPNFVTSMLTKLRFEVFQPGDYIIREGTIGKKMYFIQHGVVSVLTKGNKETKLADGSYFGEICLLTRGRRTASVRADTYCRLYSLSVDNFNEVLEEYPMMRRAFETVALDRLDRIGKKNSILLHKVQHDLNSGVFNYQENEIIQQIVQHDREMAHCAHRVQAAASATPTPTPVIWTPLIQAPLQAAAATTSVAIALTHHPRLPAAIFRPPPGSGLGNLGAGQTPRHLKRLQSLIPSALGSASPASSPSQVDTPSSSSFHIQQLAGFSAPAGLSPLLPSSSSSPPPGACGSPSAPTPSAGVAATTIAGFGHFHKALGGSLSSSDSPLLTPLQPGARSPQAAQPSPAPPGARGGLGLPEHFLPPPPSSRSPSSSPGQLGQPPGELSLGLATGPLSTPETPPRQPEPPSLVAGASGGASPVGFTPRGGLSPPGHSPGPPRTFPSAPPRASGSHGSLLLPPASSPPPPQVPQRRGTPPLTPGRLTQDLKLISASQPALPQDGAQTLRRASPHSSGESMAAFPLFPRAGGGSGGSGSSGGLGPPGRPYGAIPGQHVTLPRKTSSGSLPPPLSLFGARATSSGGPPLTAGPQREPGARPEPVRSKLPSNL
Briefly: Inhibition of human HCN4 heterologously expressed in HEK-293 cells after 30 mins by VIPR assay. It is filed as cell-based, HEK293.

The subject of data set [4] is Mus musculus. In words: Antiallodynic activity in ip dosed C57BL/6 mouse spared-nerve injury model assessed as reduction of tactile allodynia after 60 mins. In kind it is functional. The conditions noted are these: C57BL/6, ip, 1 h.
Data set [5] is filed under the species Mus musculus. In words: Toxicity in C57BL/6 mouse assessed as induction of bradycardia after 50 mins by ECG study. In kind it is organism-based. The conditions noted are these: in vivo.
The species entered for data set [6] is Homo sapiens. In words: Selectivity for human HCN1 over human HCN2.
The nature of data set [7]: Half life in human liver microsomes. In kind it is ADME, Microsome.

The results in this text go back to ChEMBL document CHEMBL1821572, “Discovery of a novel series of selective HCN1 blockers” (Bioorg Med Chem Lett, 2011).

`CCc1ccccc1C(=O)NCC1(N2CCN(C(C)C)CC2)CCCCC1`: the Selectivity ratio in the data set filed under Homo sapiens [1] is 10. In addition, the figures for the IC50 in data set [2] and in data set [3] were above 200 µM and 79.4 µM, respectively.
`CCOc1ccccc1C(=O)NCC1(N2CCN(C(C)C)CC2)CCOCC1`: the figures for the IC50 in data set [2] and in data set [3] were 0.316 µM and 3.98 µM, respectively.
For the compound `COc1ccccc1C(=O)NCC1(N2CCN(C(C)C)CC2)CCCCC1`, in the data set listed under Homo sapiens [1], the Selectivity ratio was 10. Also, the IC50 was 0.0316 µM in data set [2] and 0.794 µM in data set [3].
Take `CCOc1ccccc1C(=O)NCC1(N2CCN(C(C)C)CC2)Cc2ccccc2C1`: the 50% inhibitory concentration (IC50) in data set [2] was 0.631 µM; in data set [3], 3.16 µM.
With `COc1ccccc1C(=O)NCC1(N2CCN(C)CC2)CCCCC1`, the Selectivity ratio in the data set filed under Homo sapiens [1] was 10. The values for the IC50 in data set [2] and in data set [3] were 0.398 µM and 5.01 µM, respectively.
The like results for `CN1CCN(C2(CNC(=O)c3ccccc3Cl)CCCCC2)CC1` were, in that order, 10, above 200 µM and 31.6 µM.
`CN1CCN(C2(CNC(=O)c3ccccc3OC(F)(F)F)Cc3ccccc3C2)CC1`: the concentration for half-maximal inhibition (IC50) in data set [2] is 25.1 µM; in data set [3], above 200 µM.
On to `COc1ccc(C(=O)NCC2(N3CCN(C)CC3)Cc3ccccc3C2)cc1`, for which the concentration for half-maximal inhibition (IC50) in data set [2] was 100 µM; in data set [3] it was above 200 µM.
For the compound `CCOc1ccccc1C(=O)NCC1(N2CCN(C)CC2)Cc2ccccc2C1`, the 50% inhibitory concentration (IC50) in data set [2] is 0.398 µM; in data set [3] it was 5.01 µM.
Consider `CCN(c1ccccc1)c1cc(NC)[n+](C)c(C)n1.[Cl-]`, for which the results for the 50% inhibitory concentration (IC50) in data set [2] and in data set [3] were 0.158 µM and 0.0316 µM, respectively. Further, the ED50 in the data set on Mus musculus [4] amounted to 3 mg/kg. For the same compound, the ED20 in the data set filed under Mus musculus [5] was 1.3 mg/kg.
As for `COc1cccc(C(=O)NCC2(N3CCN(C)CC3)Cc3ccccc3C2)c1`, the IC50 in data set [2] was 63.1 µM; in data set [3], above 200 µM.
As for `CCOc1ccccc1C(=O)NCC1(N2CCN(C3CCCC3)CC2)CCCCC1`, the Selectivity ratio in the data set filed under Homo sapiens [1] was 10. Also, the half-maximal inhibitory concentration (IC50) is 0.2 µM in data set [2] and 0.794 µM in data set [3].
Consider `COc1ccccc1C(=O)NCC1(N2CCCCC2)Cc2ccccc2C1`, for which the IC50 is 50.1 µM in data set [2] and above 200 µM in data set [3].
Regarding `CN1CCN(C2(CNC(=O)c3ccccc3F)Cc3ccccc3C2)CC1`, the figures for the IC50 in data set [2] and in data set [3] were 25.1 µM and above 200 µM, respectively.
Turning to `COc1ccc([C@@H](C)CN(C/C=C\CN2C=Cc3cc(OC)c(OC)cc3CC2=O)C/C=C\CN2C=Cc3cc(OC)c(OC)cc3CC2=O)cc1OC`, the Selectivity ratio in the data set listed under Homo sapiens [1] was above 150; in the data set listed under Homo sapiens [6] it was 30.
For `CCOc1ccccc1C(=O)NCC1(N2CCN(C)CC2)CCCC1`, the IC50 is 0.398 µM in data set [2] and 5.01 µM in data set [3].
In data set [2], `COc1ccccc1C(=O)NCCN1CCN(C)CC1` gave an IC50 above 200 µM. Moreover, the pIC50 in data set [3] (hek293) was above 3.7.
For the compound `COc1ccccc1C(=O)NCC1(N2CCN(C(C)C)CC2)CCN(c2ccccc2)CC1`, the IC50 was 0.631 µM in data set [2] and 5.01 µM in data set [3].
For the compound `CN1CCN(C2(CNC(=O)c3ccccc3OCc3ccccc3)Cc3ccccc3C2)CC1`, the IC50 was 0.631 µM in data set [2] and 2.51 µM in data set [3].
With `Cc1ccccc1C(=O)NCC1(N2CCN(C)CC2)CCCCC1`, the Selectivity ratio in the data set listed under Homo sapiens [1] was determined as 10. The IC50 in data set [2] is 63.1 µM; in data set [3] it was above 200 µM.
`COc1ccccc1C(=O)NCC1(N2CCN(C)CC2)CCc2ccccc2C1` (configuration not stated): the figures for the IC50 in data set [2] and in data set [3] were 1.58 µM and 6.31 µM, respectively.
For the compound `CC(C)Oc1ccccc1C(=O)NCC1(N2CCN(C(C)C)CC2)CCCCC1`, the Selectivity ratio in the data set filed under Homo sapiens [1] was found to be 10. In addition, the IC50 was 0.251 µM in data set [2] and 1.58 µM in data set [3].
For `CN1CCN(C2(CNC(=O)c3ccccc3O)Cc3ccccc3C2)CC1`, the IC50 in data set [2] and in data set [3] was above 200 µM in each case.
In the case of `COc1ccccc1C(=O)NCC(c1ccc(C)cc1)N1CCN(C)CC1` (configuration not stated), the IC50 in data set [2] was 2.51 µM; in data set [3], 20 µM.
For `COc1ccccc1C(=O)NCC1(N2CCN(C)CC2)Cc2ccccc2C1`, the IC50 was 1.26 µM in data set [2] and 20 µM in data set [3].
As to `CCOc1ccccc1C(=O)NCC1(N2CCN(C)CC2)CCCCC1`, the Selectivity ratio in the data set listed under Homo sapiens [1] came out at 10. Also, the values for the IC50 in data set [2] and in data set [3] were 0.126 µM and 1.26 µM, respectively. Further, in data set [7], the half-life worked out at 22 min.
Turning to `CCOc1ccccc1C(=O)NCC1(N2CCN(CC)CC2)CCCCC1`, in the data set listed under Homo sapiens [1], the Selectivity ratio came to 10. Further, the 50% inhibitory concentration (IC50) is 0.0316 µM in data set [2] and 0.158 µM in data set [3].
In the case of `CN1CCN(C2(CNC(=O)c3ccccc3Cl)Cc3ccccc3C2)CC1`, the IC50 in data set [2] was 20 µM; in data set [3], 158 µM.
For the compound `CCOc1ccccc1C(=O)NCC1(N2CCN(c3ccccc3)CC2)CCCCC1`, in the data set filed under Homo sapiens [1], the Selectivity ratio amounted to 10. For the same compound, the IC50 in data set [2] is above 200 µM; in data set [3], 100 µM.
On to `CCOc1ccccc1C(=O)NCC1(N2CCN(C3CC3)CC2)CCCCC1`, for which the Selectivity ratio in the data set filed under Homo sapiens [1] is 10. Besides, the IC50 in data set [2] is 0.0501 µM; in data set [3], 0.316 µM.
As to `CCOc1ccccc1C(=O)NCC1(N2CCCCC2)Cc2ccccc2C1`, the values for the IC50 in data set [2] and in data set [3] were 15.8 µM and 39.8 µM, respectively.
As to `CCOc1ccccc1C(=O)NCC1(N2CCN(C3CCC3)CC2)CCCCC1`, the Selectivity ratio in the data set filed under Homo sapiens [1] stood at 10. For the same compound, the IC50 in data set [2] was 0.0794 µM; in data set [3], 0.794 µM.
The corresponding values for `CCOc1ccccc1C(=O)NCC1(N2CCN(C(C)C)CC2)CCCCC1` are 10, 0.0158 µM and 0.316 µM.
